Data: US8759051B2, “Control of contaminant microorganisms in fermentation processes with peroxygen-releasing compounds” (E I du Pont de Nemours and Company, priority 2010, dated 2014)
Several values for one entry are separate records, joined by “and”; a condition that tells them apart may be missing. Equal entries are not always repeated. Where two headings read alike, the source gives them in different places. Values belong to the molecule of their own block, whether it stands above or below them.

Key:
[1] = Stability of peroxygen-releasing compounds during storage at 40° C., iodometric titration of hydrogen peroxide (Example 4); type: physicochemical
Method: A dry oven was used to store samples of the peroxygen-releasing compounds at 40° C. The oven was allowed to equilibrate overnight. Two-gram duplicate samples of each of the following peroxygen-releasing compounds were dispensed into aluminum weighing dishes: sodium percarbonate (Alfa Aesar, Ward Hill, Mass.), sodium percarbonate FB 400 (Solvay Chemicals, Inc., Houston, Tex.), sodium percarbonate FB […] (Solvay Chemicals, Inc.), calcium peroxide (Sigma-Aldrich Co., St. […] After six days, samples were analyzed for levels of hydrogen peroxide using standard iodometric titration.

[2] = tested on: lactic acid bacteria (LAB); assay: Inactivation of LAB in dilute molasses at pH 5.0 in the presence of yeast Ethanol Red (Example 5); type: cell-based
Method: Cultures of lactic acid bacteria (LAB) were prepared as in Example 1 above. Molasses was diluted 1:3.1 with water as in previous examples. The fermenting yeast Ethanol Red was cultured as in example 1. Populations of lactic acid bacteria and yeasts were determined by dilution plating on MRS agar and YPD agar, respectively. Overnight cultures of LAB were mixed to prepare a bacterial cocktail and inoculated into molasses (diluted 1:3.1 with water) adjusted to pH 5.0 to give approximately 6.11 Log CFU/ml. Cultures of yeasts were added to each tube at a concentration of approximately 6.80 Log CFU/ml. […] The amount of UHP added was 1450 ppm. The amount of percarbonate added was 1812 ppm. Tubes were then incubated at 32° C. with agitation. […] Amphotericin inhibits the growth of yeast, facilitating enumeration of bacteria only.

[3] = tested on: lactic acid bacteria (LAB); assay: Inactivation of LAB in molasses at pH 4.2 and 5.4 (Examples 2 and 3); type: cell-based
Method: Molasses (B&G Foods, Inc., Roseland, N.J.) was diluted 1 to 3.1 with water and sterilized as in Example 1. The prepared molasses was then divided into two lots and pH-adjusted using sulfuric acid to approximately pH 4.2 and 5.4, respectively. Cultures of LAB were prepared as in Example 1 and inoculated into the molasses to give approximately 1×10^6 CFU/ml. Sodium percarbonate (Alfa Aesar, Ward Hill, Mass.) was added to give 250, 500, and 750 ppm. […] Levels of LAB were enumerated by dilution and plating onto the surface of MRS agar followed by incubation at 32° C. LAB were enumerated at approximately 2 and 24 hours after the addition of sodium percarbonate.
Molasses was prepared as above and adjusted to pH 4.2 and 5.4 using sulfuric acid. Cultures of lactic acid bacteria were prepared as indicated in Example 1 and inoculated into the molasses to give approximately 10E6 CFU/ml. Levels of bacteria were confirmed by plating serial dilutions of the inoculated molasses onto the surface of MRS agar plates as in Example 1. Calcium peroxide was added at the levels indicated. Bacterial levels were enumerated at 2 and 24 hours following addition as described above.

[4] = before storage, duplicate samples
[5] = storage at 40° C. in dry oven, day 6, duplicate samples
[6] = storage at 40° C. in dry oven, day 14, duplicate samples

% Remaining H2O2 Day 0 [1]: 100%
% Remaining H2O2 Day 14 [1]: 96%
% H2O2 Day 0 [1, 4]: 26.34% and 26.25%
% H2O2 Day 6 [1, 5]: 25.37% and 25.45%
% H2O2 Day 14 [1, 6]: 25.35% and 25.27%
Structure (SMILES): O=C([O-])[O-].O=C([O-])[O-].OO.OO.OO.[Na+].[Na+].[Na+].[Na+] [Sodium percarbonate (FB 400C), sodium percarbonate]

Structure (SMILES): NC(N)=O.OO [Urea hydrogen peroxide, urea hydrogen peroxide, reference compound]
% H2O2 Day 0 [1, 4]: 34.53% and 34.56%
% Remaining H2O2 Day 0 [1, 4]: 100%
% H2O2 Day 0 ([1]; before storage, duplicate samples, listed as urea hydrogen peroxide): approximately 35%
% H2O2 Day 6 [1, 5]: 0.24% and 0.25%
% Remaining H2O2 Day 6 [1, 5]: <1%
% H2O2 Day 6 ([1]; storage at 40° C. in dry oven, day 6, duplicate samples, listed as urea hydrogen peroxide): below 1%
% H2O2 Day 14 [1, 6]: 0.08%
% Remaining H2O2 Day 14 [1, 6]: 0%
stability during storage (in words) ([1]; storage at 40° C., 6 and 14 days): not stable during storage
reduction of the population of LAB ([2]; 500 ppm as H2O2, 2 hours of incubation at 32° C., in presence of yeast): 3 log units
Log CFU/mL of LAB at hour indicated ([2]; 500 ppm as H2O2, hour 2, molasses pH 5.0, yeast approx. 6.80 Log CFU/ml, 32° C.): 3.36 Log CFU/mL

% Remaining H2O2 Day 0 [1]: 100%
% Remaining H2O2 Day 6 [1]: 100%
% H2O2 Day 0 [1, 4]: 10.66% and 10.72%
% H2O2 Day 6 [1, 5]: 10.66% and 10.68%
% H2O2 Day 14 [1, 6]: 10.64% and 10.65%
Structure (SMILES): [Mg+2].[O-][O-] [Magnesium peroxide, magnesium peroxide]

% Remaining H2O2 Day 0 [1]: 100%
% Remaining H2O2 Day 6 [1]: 97%
% Remaining H2O2 Day 14 [1]: 97%
% H2O2 Day 0 [1, 4]: 34.71% and 34.73%
% H2O2 Day 6 [1, 5]: 33.66% and 33.60%
% H2O2 Day 14 [1, 6]: 33.62% and 33.57%
relative hydrogen peroxide retained during storage ([1]; storage at 40° C., day not given): 97%
Structure (SMILES): [Ca+2].[O-][O-] [Calcium peroxide, calcium peroxide]
CFU/ml LAB at hour indicated ([3]; molasses at pH 4.2, 197 ppm (69 ppm as H2O2), hour 2): 2.33 × 10^6 CFU/ml
CFU/ml LAB at hour indicated ([3]; molasses at pH 4.2, 197 ppm (69 ppm as H2O2), hour 24): 4.25 × 10^6 CFU/ml
CFU/ml LAB at hour indicated ([3]; molasses at pH 4.2, 393 ppm (138 ppm as H2O2), hour 2): 1.22 × 10^6 CFU/ml
CFU/ml LAB at hour indicated ([3]; molasses at pH 4.2, 393 ppm (138 ppm as H2O2), hour 24): 1.00 × 10^1 CFU/ml
CFU/ml LAB at hour indicated ([3]; molasses at pH 4.2, 590 ppm (207 ppm as H2O2), hour 2): 4.70 × 10^5 CFU/ml
CFU/ml LAB at hour indicated ([3]; molasses at pH 4.2, 590 ppm (207 ppm as H2O2), hour 24): <10 CFU/ml
CFU/ml LAB at hour indicated ([3]; molasses at pH 5.4, 197 ppm (69 ppm as H2O2), hour 2): 8.90 × 10^5 CFU/ml
CFU/ml LAB at hour indicated ([3]; molasses at pH 5.4, 197 ppm (69 ppm as H2O2), hour 24): 4.00 × 10^4 CFU/ml
CFU/ml LAB at hour indicated ([3]; molasses at pH 5.4, 393 ppm (138 ppm as H2O2), hour 2): 5.00 × 10^2 CFU/ml
CFU/ml LAB at hour indicated ([3]; molasses at pH 5.4, 393 ppm (138 ppm as H2O2), hour 24): below the detection limit
CFU/ml LAB at hour indicated ([3]; molasses at pH 5.4, 393 ppm (138 ppm as H2O2), hour 24, listed as Calcium percarbonate): <10 CFU/ml
CFU/ml LAB at hour indicated ([3]; molasses at pH 5.4, 590 ppm (207 ppm as H2O2), hour 2): 8.0×10^4 CFU/ml
CFU/ml LAB at hour indicated ([3]; molasses at pH 5.4, 590 ppm (207 ppm as H2O2), hour 2, listed as Calcium percarbonate): 8.00 × 10^4 CFU/ml
CFU/ml LAB at hour indicated ([3]; molasses at pH 5.4, 590 ppm (207 ppm as H2O2), hour 24): <10 CFU/ml
reductions in LAB ([3]; molasses pH 4.2, 197 ppm calcium peroxide, 2 hour): only slight reductions
reduction of LAB ([3]; molasses pH 4.2, 197 ppm calcium peroxide, 24 hours): approximately 1 log
reductions in LAB ([3]; molasses pH 4.2, 393 ppm calcium peroxide, 2 hour): only slight reductions
reduction of the population of LAB ([3]; molasses pH 4.2, 393 ppm calcium peroxide, 24 hours): more than 6 log units
reduction of the population of LAB ([3]; molasses pH 4.2, 590 ppm calcium peroxide, 2 hour): approximately 1 log
reduction of the population of LAB ([3]; molasses pH 4.2, 590 ppm calcium peroxide, 24 hours): more than 6 log units

% Remaining H2O2 Day 0 [1]: 100%
% Remaining H2O2 Day 6 [1]: 96%
% Remaining H2O2 Day 14 [1]: 96%
% H2O2 Day 0 [1, 4]: 23.81% and 23.66%
% H2O2 Day 6 [1, 5]: 22.80% and 22.74%
% H2O2 Day 14 [1, 6]: 22.80% and 22.67%
Structure (SMILES): O=C([O-])[O-].O=C([O-])[O-].OO.OO.OO.[Na+].[Na+].[Na+].[Na+] [Sodium percarbonate (FB 400), sodium percarbonate]
